Here are results for six compounds from patent US20050054629A1, “Compounds and methods of treating cell proliferative diseases” (priority 2002, published 2005).

Where two headings read alike, the source gives them in different places.

Test [1] deals with MDA-MB-231 cells. Description: Matrigel invasion assay (Boyden chamber). The conditions noted are these: for Invasion: MDA-MB-231, Boyden chamber, matrigel. The format is cell-based, human. The protocol: Chemoinvasion assay was performed in Boyden chamber as described by Albini et al (Cancer Res, 1987) with some modifications. Polycarbonate membranes with 8 μm pores were coated with matrigel (125 μg/cm^2) at room temperature for 48 h. Two hours before experiments, the matrix was […] with serum-free medium containing 0.1% BSA.
(§1) One day after seeding, 10^6 MDA-MB-231 cells were treated overnight with different concentrations of compounds (1, 10, 17.5, 25 and 50 μM). Cells were collected with Versene (Invitrogen), counted with trypan blue exclusion, rinsed twice in serum-free medium containing 0.1% BSA and resuspended in serum-free medium containing 0.1% BSA plus the appropriate concentration of compound. 10^5 treated cells were placed in the upper chamber. Medium containing 10% of FBS plus the appropriate concentration of compound was placed in the lower chamber as a chemoattractant. The Boyden chamber was incubated 6 hours at 37° C. before the cells were fixed and stained with Diff-Quick (Dade-Berhing). Cells on the upper part of the filters were removed using a cotton swab. Cells on the underside of the filters were visualised and counted under light microscope.

Test [2] has as its system MDA-MB-231 cells. As to the kind of experiment: Migration assay (Boyden chamber, non-coated filters). The format is cell-based, human. The following applies: MDA-MB-231, Boyden chamber. The method, then:
as §1
The migration assay was performed the same way, using non-coated filters.

The next test deals with cell architecture. Description: Cell architecture modification, phase contrast. The class given is cell-based. Details: key: −: no effect of the compound was observed; +: an effect of the compound was observed.
For a further test, the system named is NIH3T3 cells. As to the kind of experiment: Colony formation assay with constitutively activated Ras (RasV12) and Rac (RacV12). The class given is cell-based, mouse. Details: key to Colony formation: −: no effect of the compound was observed; +: an effect of the compound was observed. The protocol:
(§2) The impact of the compounds on Ras and Rac signaling pathways was analysed with two reporter systems described by Imler (Nature 1988) and Lin (Science, 1995) respectively on one hand, and by a colony formation assay in the presence of constitutively activated Ras (RasV12) and Rac (RacV12) on the other hand. For this latter experiment, fifty percent confluent NIH3T3 cells in a 10 cm diameter petri dish were transfected with 0.5 μg pSV2-RasV12 or 0.5 μg pEXV RacV12 plasmids plus 100 ng of pSV2-neomycin plasmid using Lipofectamine-Plus reagent (Invitrogen) according to the manufacturer's instructions. Forty-eight hours later, cells were trypsinised, splitted to ⅓, and incubated in the presence of complete medium supplemented with 400 μg/ml geneticin (Invitrogen) and different doses of compound (1, 10, 17.5, 25 and 50 μM) until emerging resistant clones appear (2-3 weeks). The medium was renewed every 3 days. Colonies with a minimum of 50 cells were counted after staining with Fuschin 2%.

The subject of test [3] is MDA-MB-231 breast carcinoma. Description: Cytotoxicity assay (MTT), 6 days. The format is cell-based. The conditions noted are these: Homo sapiens, MDA-MB-231, 144 h, 6 days of treatment, read-out: Toxicity 6d (IC 50, μM) MDA231. The text has this:
(§3) Four human tumoral cell lines, namely HCT116 colon adenocarcinoma, H460 lung carcinoma, MCF-7 and MDA-MB-231 breast carcinoma cell lines, and three immortalized but non tumorigenic cell lines, namely NIH3T3 mouse fibroblasts and human breast-derived MCF10-A and MRC-5 were purchased at ATCC and cultured according to their recommendations. In order to determine the cytotoxicity associated with one compound, a microculture tetrazolium assay (MTT), as described by Carmichael et al (Cancer Res, 1996) with modifications, was used. Briefly, 5.10^3 or 2.10^4 cells were seeded per well in 24-well plates 24 hours before drug addition. Cells were treated with 0, 1, 10, 17.5, 25 and 50 μM of compound solubilized in DMSO, adjusting the total volume of DMSO (Dimethylsulfoxide) to 1%. Forty-eight hours or 6 days after treatment, the medium was replaced by PBS containing 0.5 mg/ml MTT (Sigma) and cells were incubated for 3 more hours at 37° C. before solubilization of formazan crystals in 100% DMSO. Absorbance was measured using a spectrophotometer at a wavelength of 550 nm. Cell surviving fraction and 50% inhibitory concentration were calculated. All assays were performed in triplicate.

The test system of the next test is MCF10-A. Description: Cytotoxicity assay (MTT), 6 days. The format is cell-based. The conditions noted are these: Homo sapiens, MCF-10A, 144 h, 6 days of treatment, read-out: Toxicity 6d (IC 50, μM) MCF10-A.
From the text: as §3

A further test relates to H460 lung carcinoma. As to the kind of experiment: Cytotoxicity assay (MTT), 6 days. The format is cell-based. The following applies: Homo sapiens, NCI-H460, 144 h, 6 days of treatment, read-out: Toxicity 6d (IC 50, μM) H460.
From the text: as §3

The next test deals with MRC-5. Description: Cytotoxicity assay (MTT), 6 days. The format is cell-based. The following applies: Homo sapiens, MRC5, 144 h, 6 days of treatment, read-out: Toxicity 6d (IC 50, μM) MRC-5.
From the text: as §3

A further test has as its system NIH3T3 mouse fibroblasts. As to the kind of experiment: Cytotoxicity assay (MTT), 6 days. The class given is cell-based. The conditions noted are these: NIH3T3, 144 h, 6 days of treatment, read-out: Toxicity 6d (IC 50, μM) NIH3T3.
From the text: as §3

Another test deals with MCF-7 breast carcinoma. Description: Cytotoxicity assay (MTT), 6 days. The format is cell-based. The following applies: Homo sapiens, MCF7, 144 h, 6 days of treatment, read-out: Toxicity 6d (IC 50, μM) MCF7.
From the text: as §3

The subject of test [4] is HCT116 colon adenocarcinoma. As to the kind of experiment: Cytotoxicity assay (MTT), 6 days. The format is cell-based, human. The following applies: 6 days of treatment, read-out: Toxicity 6d (IC 50, μM) HCT116.
From the text: as §3

The subject of a further test is Ras. As to the kind of experiment: Ras-dependant signaling pathway analysis (reporter system). On the set-up: key: −: no effect of the compound was observed; +: an effect of the compound was observed. The format is cell-based. The method, then: as §2
Another test deals with MDA231. As to the kind of experiment: Cytoskeleton analysis, actin staining (FITC-phalloidin). The format is cell-based, human. The conditions noted are these: 24 h treatment. The protocol: Since major rearrangements of cytoskeleton are observed in tumor cells and since the small GTPases are known to regulate these events, analysis of actin cytoskeleton was performed. Subconfluent cells seeded onto coverslips were treated with different concentration of compound (1, 10, 17.5, 25 and 50 μM) or vehicle for 24 h, before being fixed in 4% formaldehyde for 15 min., permeabilized in 0.2% Triton X100 for 5 minutes and incubated in PowerBlock (Biogenex) for 10 min. Actin filaments were stained with 0.5 μg/ml fluorescein isothiocyanate (FITC)-labelled phalloidin for 1 hour. Analysis was performed using an inverted fluorescent microscope.

For the next test, the system named is HCT116. Description: Cell viability assay (MTT), Example 32. The format is cell-based, human. The conditions noted are these: Homo sapiens, HCT-116, 144 h; day 6, 10% FBS. The method, then:
FIG. 7: Antiproliferative effect of compounds on HCT116 (top) and MDA-MB-231 (bottom) cell lines measured by MTT viability assay. 2.5 10^3 (HCT116) or 7.5 10^3 (MDA-MB-231) cells were seeded in 48-well plates in growth medium containing 10% FBS, with or without various concentrations of test compounds. Cell cultures were fed every 3 days with the appropriate media. Cell viability was determined on day 6. Data were analyzed and IC50s were calculated from the dose-response curves using GraphPad Prism.
In order to determine one compound effect on cell viability, microculture tetrazolium assay (MTT) was performed as described by Carmichael et al., (1996) with modifications. Four human tumoral cell lines, namely HCT116 colon adenocarcinoma, H460 lung carcinoma, MCF-7 and MDA-MB-231 breast carcinoma cell lines, and 3 immortalized but non tumorigenic cell lines, namely NIH3T3 mouse fibroblasts and human breast-derived MCF10-A and human lung-derived MRC-5 were purchased at ATCC and cultured according to their recommendations. Briefly, 2.5 10^3 to 2 10^4 cells per well were seeded in 48-well plates 24 hours before drug addition. Cells were treated with 0 to 200 μM (11 concentrations) of compound solubilized in DMSO, adjusting the final concentration of DMSO to 1% in the well. Six days after treatment, the medium was replaced by PBS containing 0.5 mg/ml MTT (Sigma) and cells were incubated for 1-3 hours at 37° C. before solubilization of formazan crystals in 100% DMSO. Absorbance was measured using a spectrophotometer at a wavelength of 550 nm. Data was analyzed using the GraphPad Prism software (GraphPad Software, Inc., San Diego, USA), and IC50 (dose leading to 50% cell death) was calculated from the dose-response curves.

For another test, the system named is HCT116 cells. Description: Anchorage-independent cell growth assay in soft agar, Example 32. The class given is cell-based, human. The conditions noted are these: 7 days. The protocol:
FIG. 8: Effect of the treatment of HCT116 cells with the compounds on the size of the clones grown in soft agar. 5 10^3 cells were seeded in 24-well plates in 0.3% agar-containing medium supplemented with the designated amount of compounds. After 7 days of incubation at 37° C., pictures were taken of each well and were analyzed using the ImageJ image analysis software. In particular, clone size and number were calculated. The data were analyzed using GraphPad Prism, and IC50 was calculated.
In order to evaluate the effect of one compound on the capacity of tumour cells to grow without anchorage, HCT116 cells were seeded in soft agar. In contrast to microplate assays which average the drug's effects over an entire cell population, clonogenic assays offer the possibility of distinguishing cytotoxic agents (i.e., decreased colony number) from cytostatic agents (i.e., decreased colony size without decreased colony number; Murphy M. J. et al., 1996).
Briefly, 5 10^3 HCT116 cells were resuspended in 300 pi of complete medium containing 0.3% soft-agar (Difco) and different concentrations of compound (8 concentrations ranging from 0 to 30 μM). Cells were then poured on a solidified layer of medium containing 0.5% of soft agar plus the compound at the same concentration as in the upper layer. Cells were incubated for 7 days' at 37° C. before pictures of each well were taken using a phase contrast microscope (Nikon) and a digital camera (Nikon Coolpix 990). Pictures were subsequently analyzed using a free image analysis software from the NIH (ImageJ) allowing to determine clones size and number.
Data was analyzed using the GraphPad Prism software, and IC50 (dose leading to a 50% decrease of clone size or number) was calculated from dose-response curves. The ratio IC50 clone size/IC50 clone number was then calculated. When this ratio is equal to 1 (IC50 size=IC50 number), the compound is referred to as “cytotoxic”. When the ratio is close to 0 (IC50 size<<IC50 number), the compound is referred to as “cytostatic” (FIG. 6).

As to `C/C=C/c1oc(CO)cc(=O)c1OCCCCCOc1ccccc1CCC` [EH9301, (E)-6-(Hydroxymethyl)-2-(propen-1-yl)-3-[5-(2-propylphenyloxy)pentyloxy]-4H-pyran-4-one], the Invasion entry with MDA-MB-231 cells [1] is “No effect”. Besides, the Migration result in the test with MDA-MB-231 cells [2] is listed as “no effect”. Further, in the test with cell architecture, the “Cell architecture modification phase contrast” value was “−”. Moreover, in the test on NIH3T3 cells, the Colony formation entry is “−”. For the same compound, the IC50 is 25 µM in test [3]; > 50 µM in the test on MCF10-A; 25 µM with H460 lung carcinoma; 35 µM in the test with MRC-5; 50 µM in the test on NIH3T3 mouse fibroblasts; 20 µM with MCF-7 breast carcinoma. Moreover, in [4] (Homo sapiens, HCT-116, 144 h), the IC50 was 20 µM.
Take `O=C(NCc1ccccc1)c1cc(=O)c(OCCCCCOc2ccc(Cl)cc2)co1` [EH28900, N-Benzyl-5-[5-(4-Chlorophenyloxy)pentyloxy]-4-oxo-4H-pyran-2-carboxamide]: in the test with cell architecture, the “Cell architecture modification phase contrast” value is given as “−”. For the same compound, the IC50 in test [3] worked out at 5 µM; in the test on MCF10-A, 50 µM; with H460 lung carcinoma, 10 µM; in the test with NIH3T3 mouse fibroblasts it was 0.5 µM; in the test on MCF-7 breast carcinoma it was 20 µM; in test [4], 25 µM. Further, the IC50 in test [4] (Homo sapiens, HCT-116, 144 h) was ≤ 15 µM. Besides, in the test with Ras, the “Small GTPases activities Ras” value is “−”.
With `CCCc1cc(Cl)c(Cl)cc1OCCCCCOc1coc(CO)cc1=O` [EH30701, 5-[5-(4,5-Dichloro-2-propylphenyloxy)pentyloxy]-2-(hydroxymethyl)-4H-pyran-4-one], in the test on MDA-MB-231 cells [1], the “concentration giving significant inhibition of invasive properties of MDA-MB-231 cells” value stood at 17.5 µM. The Invasion entry in the test on MDA-MB-231 cells [1] is listed as “Decrease”. In addition, the “Cell architecture modification phase contrast” value in the test with cell architecture is listed as “−”. Besides, the IC50 is 15 µM in test [3]; 15 µM in the test on H460 lung carcinoma; 20 µM in the test with MCF-7 breast carcinoma; 8 µM in test [4]; ≤ 15 µM in test [4] (Homo sapiens, HCT-116, 144 h). Further, the “Cell architecture modification actin staining MDA231” value with MDA231 is listed as “cell spreading”.
Compound `O=c1cc(COC2CCCCO2)occ1OCCCCCn1ccc2cc(F)ccc21` (centres unmarked) [EHT 0533, 5-[5-(5-Fluoro-indol-1-yl)-pentyloxy]-2-(tetrahydro-pyran-2-yloxymethyl)-4H-pyran-4-one] showed an IC50 in the test on HCT116 of 1.5 to 4 µM. Moreover, in the test with HCT116 cells, the “IC50 anchorage-independent growth of HCT116 (clone size) in soft agar” value (from here on “IC50 anchorage-independent growth”) is given as “micromolar range”.
`Cc1cc2ccccc2n1CCCCCOc1coc(COC2CCCCO2)cc1=O` (centres unmarked) [EHT 2427, 5-[5-(2-Methyl-indol-1-yl)-pentyloxy]-2-(tetrahydro-pyran-2-yloxymethyl)-4H-pyran-4-one]: the IC50 with HCT116 lay in the range of 1.5 to 4 µM. Further, the “IC50 anchorage-independent growth” value in the test with HCT116 cells is reported as “micromolar range”.
`O=c1cc(COC2CCCCO2)occ1OCCCCCn1ccc2ccccc21` (centres unmarked) [EHT 7395, 5-(5-Indol-1-yl-pentyloxy)-2-(tetrahydro-pyran-2-yloxymethyl)-4H-pyran-4-one] came in with an IC50 with HCT116 of 1.5 to 4 µM. For the same compound, the “IC50 anchorage-independent growth” value in the test on HCT116 cells is reported as “micromolar range”.
